Common to all, as to type: in vivo
In experiment [1] the test system is Myzus persicae. The experiment is described as follows: Myzus persicae oral test. The note with it: 120 h, after 5 days, read-out: efficacy. An outline of the steps: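 Compound solution in IPL41 insect medium with sugar was sealed under parafilm, through which a mixed population of green peach aphids fed. Mortality was scored after 5 days as % efficacy, with 100% meaning all aphids killed.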

Experiment [2] relates to Phaedon cochleariae. The experiment is described as follows: Phaedon cochleariae spray test (PHAECO), Chinese cabbage leaf discs. In outline: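 Chinese cabbage (Brassica pekinensis) leaf discs sprayed with compound in water with 1000 ppm emulsifier, then after drying infested with Phaedon cochleariae larvae. Efficacy (% larvae killed) scored after 7 days or the chosen interval.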

Experiment [3] has as its system Musca domestica. The experiment is described as follows: Musca domestica test. The conditions noted are these: 100 ppm, adult houseflies, after 2 days. On the procedure: Solvent: dimethyl sulfoxide To produce a suitable active ingredient formulation, 10 mg of active ingredient are mixed with 0.5 ml of dimethyl sulfoxide, and the concentrate is diluted with water to the desired concentration. Vessels containing a sponge treated with sugar solution and the active ingredient formulation of the desired concentration are populated with 10 adult houseflies (Musca domestica). After 2 days, the kill in % is determined. 100% means that all of the flies have been killed; 0% means that none of the flies have been killed.

Experiment [4] concerns Myzus persicae. The experiment is described as follows: Myzus persicae spray test (MYZUPE), Chinese cabbage leaf discs. The conditions noted are these: for pest or weed control at 100 g/ha: Myzus persicae, foliar, 120 h, 5 days (5 dat), read-out: efficacy. An outline of the steps: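 Leaf discs of Chinese cabbage carrying all stages of green peach aphid were sprayed with compound formulated in solvent and diluted with water containing emulsifier at 1000 ppm. Percent efficacy (100% = all aphids dead) was scored after 5 days or after the desired time.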

The subject of experiment [5] is Lucilia cuprina. The experiment is described as follows: Lucilia cuprina test. The note with it: 48 h, L1 larvae, after 2 days, read-out: efficacy (kill). An outline of the steps:
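About 20 L1 larvae of Lucilia cuprina placed on minced horsemeat containing compound (DMSO stock diluted in water to test concentration). Kill (%) scored after 2 days; 100% = all larvae dead, 0% = none dead.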

Experiment [6] relates to Nilaparvata lugens. The experiment is described as follows: Nilaparvata lugens spray test (NILALU). The note with it: 4 g/ha, 4 dat. On the procedure: (§1) [table] To produce an appropriate active ingredient formulation, 1 part by weight of active ingredient is dissolved with the specified parts by weight of solvent and made up with water containing an emulsifier concentration of 1000 ppm until the desired concentration is attained. To produce further test concentrations, the mixture is diluted with emulsifier-containing water. If addition of ammonium salts or/and penetrants is required, these are each added to the preparation solution in a concentration of 1000 ppm. Rice plants (Oryza sativa) are sprayed with an active ingredient formulation of the desired concentration and then populated with larvae of the brown planthopper (Nilaparvata lugens). After the desired time, the efficacy in % is determined. 100% means that all planthoppers have been killed; 0% means that no planthoppers have been killed.

Experiment [7] has as its system Meloidogyne incognita. The experiment is described as follows: Meloidogyne incognita test (MELGIN). The note with it: 20 ppm, 14 days (14 dat). In outline:
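Sand with lettuce seeds, M. incognita egg/larvae suspension and aqueous dilution of compound concentrate. Nematicidal efficacy scored from gall (root-knot) formation after 14 days or the desired time, as % relative to untreated control (100% = no galls; 0% = as control).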

Experiment [8] deals with Aphis gossypii. The experiment is described as follows: Aphis gossypii spray test (APHIGO), cotton plants. The conditions noted are these: 6 dat. In outline: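 Cotton plants (Gossypium hirsutum) heavily infested with cotton aphids were sprayed with the active ingredient formulated in emulsifier-containing water (1000 ppm emulsifier), with ammonium salt or penetrant added at 1000 ppm where required. After the set time, percent kill was determined, where 100% means all aphids dead.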

For experiment [9], the system named is Meloidogyne incognita. The experiment is described as follows: Meloidogyne incognita drench test (MELGIN D). The note with it: soil, 504 h, 21 dat, read-out: % efficacy. On the procedure:
[table] To produce an appropriate active ingredient formulation, 1 part by weight of active ingredient is mixed with the specified amounts of solvent and emulsifier and the concentrate is diluted to the desired concentration with water, it being necessary to take into account the volume of soil into which drenching is effected. It should be ensured that a concentration of 20 ppm of emulsifier in the soil is not exceeded. For production of further test concentrations, the mixture is diluted with water. Pots filled with soil (loamy sand) are drenched with the active ingredient solution. An egg/larvae suspension of the southern root-knot nematode (Meloidogyne incognita) is added, and lettuce seeds are scattered over the soil surface and covered with quartz sand. The lettuce seeds germinate and the seedlings develop. The root-knots develop on the roots. After the desired time, the nematicidal effect is determined with reference to the root-knot formation in %. 100% means that no root-knots were found; 0% means that the number of root-knots on the treated plants corresponds to that on the untreated control.

Experiment [10] deals with Diabrotica balteata. The experiment is described as follows: Diabrotica balteata drench test (DIABBA). The conditions noted are these: soil, 192 h, 8 dat, read-out: % efficacy. The protocol:
[table] To produce an appropriate active ingredient formulation, 1 part by weight of active ingredient is mixed with the specified amounts of solvent and emulsifier and the concentrate is diluted to the desired concentration with water, it being necessary to take into account the volume of soil into which drenching is effected. It should be ensured that a concentration of 40 ppm of emulsifier in the soil is not exceeded. For production of further test concentrations, the mixture is diluted with water. 5 maize kernels in each case are sown into soil-filled pots (Zea mays) and, the next day, drenched with the active ingredient formulation of the desired concentration. After one day, about 25 L2 larvae of the banded cucumber beetle (Diabrotica balteata) were added. After 8 days, the efficacy in % is determined. 100% means that all 5 plants have germinated and grown; 0% means that no plant has emerged.

The subject of experiment [11] is Nezara viridula. The experiment is described as follows: Nezara viridula spray test (NEZARA / NEZAVI). The conditions noted are these: Nezara viridula, 96 h, 4 g/ha, 4 dat, read-out: % efficacy. An outline of the steps: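 Barley plants infested with Nezara viridula larvae were sprayed with active ingredient in solvent/emulsifier water (1000 ppm emulsifier; ammonium salt or penetrant at 1000 ppm if added). Efficacy scored as % mortality after the set time (100% = all bugs killed).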

For experiment [12], the system named is Phaedon cochleariae. The experiment is described as follows: Phaedon cochleariae spray test (PHAECO S), cabbage leaves. The note with it: Phaedon cochleariae, 168 h, 7 dat, read-out: % efficacy. On the procedure:
as §1, with “Cabbage leaves (Brassica oleracea)” for “Rice plants (Oryza sativa)”, “and” for “and then”, “mustard beetle (Phaedon cochleariae).” for “brown planthopper (Nilaparvata lugens).”, “kill” for “efficacy”, “beetle larvae” for “planthoppers”

Experiment [13] has as its system Tetranychus urticae. The experiment is described as follows: Tetranychus urticae spray test, OP-resistant (TETRUR). The conditions noted are these: Tetranychus urticae, 144 h, TETRUR, 6 dat, read-out: % efficacy. The protocol:
[table] To produce a suitable active ingredient formulation, 1 part by weight of active ingredient is dissolved with the specified parts by weight of solvent and made up to the desired concentration with water containing an emulsifier concentration of 1000 ppm. To produce further test concentrations, the formulation is diluted with emulsifier-containing water. Discs of bean leaves (Phaseolus vulgaris) infested with all stages of the greenhouse red spider mite (Tetranychus urticae) are sprayed with an active ingredient formulation of the desired concentration. After 6 days, the efficacy in % is determined. 100% means that all the spider mites have been killed; 0% means that no spider mites have been killed.

For `CCNC(=O)c1ccc(S(=O)(=O)CC)c(-c2nc3cc(C(F)(F)C(F)(F)F)nnc3n2C)n1` [Example I-04, N-ethyl-5-(ethylsulfonyl)-6-[7-methyl-3-(pentafluoroethyl)-7H-imidazo[4,5-c]pyridazin-6-yl]pyridine-2-carboxamide], the pest or weed control at 0.8 ppm in experiment [1] came out at 100%. Also, the pest or weed control at 100 g/ha in experiment [2] (Phaedon cochleariae, foliar, 168 h, 100 g/ha, 7 days (7 dat), read-out: efficacy) was found to be 100%; in experiment [4], 100%. Besides, the “efficacy (kill)” value in [3] came out at 80%. Further, the pest or weed control at 100 ppm in [5] amounted to 100%.
`CCS(=O)(=O)c1ccc(C(=O)NC)nc1-c1nc2cc(C(F)(F)C(F)(F)F)nnc2n1C` [Example I-01]: the pest or weed control at 0.8 ppm in experiment [1] is 100%. Also, the “% efficacy” value in [6] is on record as 100%; in [8] (0.8 ppm), 70%; in [8] (4 ppm) it was 100%; in experiment [2] (PHAECO, 20 g/ha, 7 dat), 67%; in experiment [4] (MYZUPE, 4 g/ha, 5 dat) it was 90%. Further, the “efficacy (nematicidal, gall formation)” value in [7] is on record as 90%. In addition, the efficacy in experiment [2] (100 g/ha, 7 days (7 dat)) amounted to 100%. Besides, the “efficacy (kill)” value in [3] amounted to 100%. In addition, the pest or weed control at 100 g/ha in [4] stood at 90%. Further, the pest or weed control at 100 ppm in experiment [5] was 100%.
On to `CCS(=O)(=O)c1ccc(NC(=O)NC)nc1-c1nc2cc(C(F)(F)F)nnc2n1C` [reference compound], for which the Emax at 4 ppm was 25% in experiment [8] (Aphis gossypii, 144 h, 4 ppm, read-out: % efficacy) and 0% in experiment [12] (4 ppm). For the same molecule, in experiment [9] (1 ppm), the Emax at 1 ppm is 0%. The Emax at 2 ppm in experiment [9] (2 ppm) was found to be 50%. For the same molecule, the Emax at 20 ppm in experiment [10] and in experiment [12] (20 ppm) was 0% in each case. For the same molecule, the Emax at 4 g/ha in experiment [11] worked out at 0%. Besides, the Emax at 20 g/ha in [13] (20 g/ha) came out at 0%. Further, the Emax at 100 g/ha in experiment [13] (100 g/ha) was determined as 0%.

Source of the values: patent US11089783B2, “2-(het)aryl-substituted fused heterocycle derivatives as pesticides” (Bayer Aktiengesellschaft, priority 2017, dated 2021).
